Structures can show the parent of a compound that is named as a salt. Where two headings read alike, the source gives them in different places.
How the values were obtained:
[1] = system: A375 cells; experiment: Cellular phospho-ERK inhibition assay in A375 cells; assay type: cell-based; settings: Homo sapiens, A-375, A375 cells (head prints A357), 2 hours treatment, read-out: A357 cell IC50
In short: (§1)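 A375 (DMEM) or H1755 (RPMI) cells in 10% FBS treated 2 h at 37 °C with 9-point series, 66 pM–10 μM, 0.25% DMSO. Phospho-ERK1/2 (Thr202/Tyr204) measured by In Cell Western, normalised to GAPDH and to DMSO and 10 μM binimetinib controls; IC50 by 4-parameter fit.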

[2] = target: P-gp (MDR1) (Homo sapiens (Human), UniProt P08183); experiment: MDR1 LLC-PK1 permeability assay: efflux ratio; assay type: in vitro ADME; settings: pig
Sequence of P-gp (MDR1) (P08183 whole entry, species assumed): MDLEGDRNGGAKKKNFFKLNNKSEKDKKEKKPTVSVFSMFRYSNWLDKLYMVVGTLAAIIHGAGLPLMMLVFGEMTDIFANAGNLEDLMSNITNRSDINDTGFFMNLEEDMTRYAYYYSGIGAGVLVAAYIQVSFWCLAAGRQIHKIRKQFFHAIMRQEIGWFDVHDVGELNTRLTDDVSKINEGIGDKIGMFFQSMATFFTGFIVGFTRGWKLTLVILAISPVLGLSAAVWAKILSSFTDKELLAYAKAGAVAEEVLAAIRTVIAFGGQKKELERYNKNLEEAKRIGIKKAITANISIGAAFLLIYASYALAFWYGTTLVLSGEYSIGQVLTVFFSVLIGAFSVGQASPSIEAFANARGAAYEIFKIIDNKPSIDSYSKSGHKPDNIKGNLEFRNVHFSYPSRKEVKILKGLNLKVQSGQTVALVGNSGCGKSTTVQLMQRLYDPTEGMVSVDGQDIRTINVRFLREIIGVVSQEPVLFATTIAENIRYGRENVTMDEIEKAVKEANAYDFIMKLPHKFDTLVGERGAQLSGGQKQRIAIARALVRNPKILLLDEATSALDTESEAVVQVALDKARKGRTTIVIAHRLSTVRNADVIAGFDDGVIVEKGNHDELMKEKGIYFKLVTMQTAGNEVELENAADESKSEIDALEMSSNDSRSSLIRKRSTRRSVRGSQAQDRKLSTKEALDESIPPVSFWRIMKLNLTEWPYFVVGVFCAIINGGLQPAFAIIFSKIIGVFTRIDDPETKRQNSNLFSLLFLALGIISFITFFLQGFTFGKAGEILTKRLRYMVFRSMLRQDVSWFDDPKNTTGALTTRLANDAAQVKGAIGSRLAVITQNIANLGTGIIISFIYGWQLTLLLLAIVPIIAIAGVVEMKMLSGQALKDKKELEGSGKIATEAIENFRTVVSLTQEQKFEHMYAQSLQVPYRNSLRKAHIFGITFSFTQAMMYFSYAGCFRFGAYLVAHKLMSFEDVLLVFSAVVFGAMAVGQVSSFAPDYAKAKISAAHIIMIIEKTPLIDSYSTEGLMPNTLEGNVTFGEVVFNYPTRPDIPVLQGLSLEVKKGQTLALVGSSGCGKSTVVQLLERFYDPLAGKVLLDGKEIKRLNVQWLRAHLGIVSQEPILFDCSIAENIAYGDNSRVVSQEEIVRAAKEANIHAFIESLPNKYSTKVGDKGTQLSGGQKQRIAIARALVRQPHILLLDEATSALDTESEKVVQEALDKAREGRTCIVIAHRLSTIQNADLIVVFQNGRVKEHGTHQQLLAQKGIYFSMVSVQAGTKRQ
Excerpt: (§2) Final organic concentration in the assay was 1%.

[3] = MDR1 LLC-PK1 and BCRP MDCKII permeability assay: permeability coefficient (Papp); assay type: in vitro ADME
Excerpt: as §2

[4] = target: full-length FLAG-tagged B-Raf(V600E) (Homo sapiens (Human), UniProt P15056, V600E); experiment: BRAF V600E enzyme assay (TR-FRET competitive displacement); assay type: binding
Sequence of full-length FLAG-tagged B-Raf(V600E) (P15056 whole entry V600E): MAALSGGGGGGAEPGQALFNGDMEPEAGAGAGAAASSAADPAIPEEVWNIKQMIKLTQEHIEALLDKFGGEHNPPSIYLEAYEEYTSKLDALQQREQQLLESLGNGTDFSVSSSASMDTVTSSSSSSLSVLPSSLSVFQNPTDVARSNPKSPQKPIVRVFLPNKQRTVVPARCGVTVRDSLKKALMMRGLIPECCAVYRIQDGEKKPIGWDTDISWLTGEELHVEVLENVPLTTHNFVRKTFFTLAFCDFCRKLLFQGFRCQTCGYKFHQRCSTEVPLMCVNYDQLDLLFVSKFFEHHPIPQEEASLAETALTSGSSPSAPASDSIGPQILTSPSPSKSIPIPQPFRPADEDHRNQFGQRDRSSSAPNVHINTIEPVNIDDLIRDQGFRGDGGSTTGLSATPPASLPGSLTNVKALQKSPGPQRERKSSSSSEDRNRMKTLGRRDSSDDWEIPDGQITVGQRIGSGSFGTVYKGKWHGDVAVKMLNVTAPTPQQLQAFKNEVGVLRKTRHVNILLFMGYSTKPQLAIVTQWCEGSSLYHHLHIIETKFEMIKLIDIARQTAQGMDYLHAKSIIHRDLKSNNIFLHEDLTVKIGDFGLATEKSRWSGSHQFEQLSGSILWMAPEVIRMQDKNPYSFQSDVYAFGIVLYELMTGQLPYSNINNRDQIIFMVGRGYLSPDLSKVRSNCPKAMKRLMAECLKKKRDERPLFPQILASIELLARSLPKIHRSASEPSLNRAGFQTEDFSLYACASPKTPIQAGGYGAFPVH
In short: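 Displacement of 50 nM Tracer 1710 from 5 nM full-length N-terminally FLAG-tagged B-Raf(V600E), detected by TR-FRET with 0.5 nM Eu anti-FLAG antibody, in 25 mM HEPES pH 7.4, 10 mM MgCl2, 2% DMSO; 60 min at ~22 °C. Compounds 11-point, 3-fold from 10 μM; IC50 from 4-parameter fit at 50 POC.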

[5] = target: BCRP (Homo sapiens (Human), UniProt Q9UNQ0); experiment: BCRP MDCKII permeability assay: efflux ratio; assay type: in vitro ADME; settings: dog
Sequence of BCRP (Q9UNQ0 whole entry): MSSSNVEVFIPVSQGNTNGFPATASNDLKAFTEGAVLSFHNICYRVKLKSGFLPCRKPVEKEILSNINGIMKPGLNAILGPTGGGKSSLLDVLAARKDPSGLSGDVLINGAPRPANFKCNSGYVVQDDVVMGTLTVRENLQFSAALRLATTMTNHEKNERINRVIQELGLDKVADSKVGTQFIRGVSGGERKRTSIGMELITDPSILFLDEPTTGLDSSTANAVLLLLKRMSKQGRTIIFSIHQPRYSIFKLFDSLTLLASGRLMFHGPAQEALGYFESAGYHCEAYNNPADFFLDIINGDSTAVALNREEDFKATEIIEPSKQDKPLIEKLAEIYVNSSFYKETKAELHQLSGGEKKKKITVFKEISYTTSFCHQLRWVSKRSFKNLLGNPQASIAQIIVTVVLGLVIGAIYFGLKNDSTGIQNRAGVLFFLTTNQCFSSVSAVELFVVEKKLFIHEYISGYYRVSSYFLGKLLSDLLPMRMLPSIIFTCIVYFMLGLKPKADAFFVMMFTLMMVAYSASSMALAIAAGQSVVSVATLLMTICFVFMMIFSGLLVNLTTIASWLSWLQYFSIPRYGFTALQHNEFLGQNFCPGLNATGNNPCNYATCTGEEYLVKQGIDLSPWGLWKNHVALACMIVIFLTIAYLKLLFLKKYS

[6] = PK (free brain-to-free plasma ratio) (mouse); assay type: in vivo; settings: male CD-1 mice, oral gavage 10 mg/kg, unbound brain-to-unbound plasma, read-out: B/P ratio (free)
Experimental: The ability of representative compounds to penetrate the BBB in mice was determined by evaluating the unbound brain-to-unbound plasma (also referred to as free brain-to-free plasma) concentration ratio in male CD-1 mice.
Brain compound levels were generated from oral mouse PK dosing with typical sampling times of 2, 4, 8, 12 and 24 hours post oral gavage dosing at 10 mg/kg. Brain samples were stored at −20±5° C. prior to analysis. Concentrations of test compound in mouse brain homogenate were determined by liquid chromatography tandem mass spectrometry (LC-MS/MS) following protein precipitation with acetonitrile. A 12-point calibration curve, ranging from 0.5 to 10,000 ng/mL, was prepared in duplicate. A solution of 400 μg/mL of test compound in dimethyl sulfoxide (DMSO) was serially diluted (3-fold) in 100% DMSO, and then 2.5 μL of each standard solution was added to 100 μL of naïve male CD-1 mice brain homogenate. To mimic the extraction in the standard curve, 2.5 μL of DMSO was added to all test samples. Both calibration and test brain homogenate samples were spiked with 10 μL of an IS (1 μg/mL of a structural analog). Brain homogenate was generated by adding 0.75 mL of 4:1 water:MeOH to each brain sample followed by homogenization for 1 minute with bead beater tubes a 6 m/s using an MP Fast Prep-24®. Proteins were precipitated from 100 μL of brain homogenate sample by the addition of 300 μL of acetonitrile. Samples were vortex-mixed for 5 minutes and spun in an Allegra X-12R centrifuge (Beckman Coulter, Fullerton, CA; SX4750A rotor) for 15 min at approximately 1,500×g at 4° C. A 100 μL aliquot of each supernatant was transferred via a 550 μL Personal Pipettor (Apricot Designs, Monrovia, CA) to 96-well plates and diluted 1:1 with HPLC grade water. The resulting plates were sealed with aluminum for LC-MS/MS analysis.
Brain-to-plasma ratios were calculated using the concentration of compound measured in the brain divided by the concentration of compound measured in the plasma. Brain-to-plasma ratios were always generated from a single animal and time point. Free brain-to-free plasma ratios were calculated by multiplying the brain-to-plasma ratio by the in vitro brain homogenate free fraction divided by the in vitro plasma free fraction using the following equation: (B/P)*(Bfu/Pfu). Table C provides the free brain-to-free plasma ratios of compounds disclosed herein.

[7] = system: H1755 cells; experiment: Cellular phospho-ERK inhibition assay in H1755 cells; assay type: cell-based; settings: Homo sapiens, NCI-H1755, 2 hours treatment, read-out: H1755 Cell IC50
In short: as §1

[8] = averaged IC50, TR-FRET tracer displacement, 60 min

| SMILES | IC50 [1] [nM] | efflux ratio at 2 h, 1 µM [2] | Papp at 2 h, 1 µM [3] [×10⁻⁶ cm/s] | IC50 [4, 8] [nM] | efflux ratio at 2 h, 1 µM [5] | Kp [6] | IC50 [7] [nM] | IC50 [4] [nM] |
| --- | --- | --- | --- | --- | --- | --- | --- | --- |
| Cn1cnc2ccc(Nc3c(F)c(F)cc(NS(=O)(=O)N4CCCC4)c3Cl)c(F)c2c1=O [Example 40, N-(2-chloro-4,5-difluoro-3-((5-fluoro-3-methyl-4-oxo-3,4-dihydroquinazolin-6-yl)amino)phenyl)pyrrolidine-1-sulfonamide trifluoroacetate] | 4 | 2 | 29 | 2 | 2.3 | 0.55 to 0.72 | 50 |  |
| Cn1cnc2ccc(Nc3c(F)ccc(NS(=O)(=O)N4CC5CC5C4)c3Cl)c(Cl)c2c1=O (stereo not drawn) [Example 17, N-(2-chloro-3-((5-chloro-3-methyl-4-oxo-3,4-dihydroquinazolin-6-yl)amino)-4-fluorophenyl)-3-azabicyclo[3.1.0]hexane-3-sulfonamide] | 7 | 1.3 | 24 | 4 | 1.1 | 0.61 to 0.64 | 80 |  |
| CO[C@@H]1CCN(S(=O)(=O)Nc2ccc(F)c(Oc3ccc4ncn(C)c(=O)c4c3Cl)c2Cl)C1 [Example 37, (R)-N-(2-chloro-3-((5-chloro-3-methyl-4-oxo-3,4-dihydroquinazolin-6-yl)oxy)-4-fluorophenyl)-3-methoxypyrrolidine-1-sulfonamide] | 4 | 2.4 | 29 | 4 | 1.5 | 0.66 to 0.73 | 33 |  |
| COC1CN(S(=O)(=O)Nc2ccc(F)c(Nc3ccc4ncn(C)c(=O)c4c3F)c2Cl)C1 [Example 130, N-(2-chloro-4-fluoro-3-((5-fluoro-3-methyl-4-oxo-3,4-dihydroquinazolin-6-yl)amino)phenyl)-3-methoxyazetidine-1-sulfonamide] | 7 | 2.3 | 30 | 11 | 7.6 | 0.12 to 0.16 | 38 |  |
| Cc1c(Oc2c(F)ccc(NS(=O)(=O)N3CC[C@@H](F)C3)c2Cl)ccc2ncn(C)c(=O)c12 [Example 70, (R)-N-(2-chloro-3-((3,5-dimethyl-4-oxo-3,4-dihydroquinazolin-6-yl)oxy)-4-fluorophenyl)-3-fluoropyrrolidine-1-sulfonamide] | 14 | 1.8 | 25 |  | 1 | 0.17 to 0.36 | 43 | 8 |
| Cn1cnc2ccc(Oc3c(F)ccc(NS(=O)(=O)N4CC[C@@H](F)C4)c3Cl)c(Cl)c2c1=O [Example 38, (R)-N-(2-chloro-3-((5-chloro-3-methyl-4-oxo-3,4-dihydroquinazolin-6-yl)oxy)-4-fluorophenyl)-3-fluoropyrrolidine-1-sulfonamide] | 5 | 1.2 | 33 | 2 | 1.8 | 0.2 to 0.24 | 27 |  |
| Cc1c(Nc2c(F)ccc(NS(=O)(=O)N3CCC(F)(F)C3)c2Cl)ccc2ncn(C)c(=O)c12 [Example 93, N-(2-chloro-3-((3,5-dimethyl-4-oxo-3,4-dihydroquinazolin-6-yl)amino)-4-fluorophenyl)-3,3-difluoropyrrolidine-1-sulfonamide] | 60 | 1.4 | 33 | 3 | 0.8 |  | 195 |  |
| Cn1cnc2ccc(Oc3c(F)ccc(NS(=O)(=O)N4C[C@@H](F)[C@@H](F)C4)c3Cl)c(Cl)c2c1=O [Example 59, cis-N-(2-chloro-3-((5-chloro-3-methyl-4-oxo-3,4-dihydroquinazolin-6-yl)oxy)-4-fluorophenyl)-3,4-difluoropyrrolidine-1-sulfonamide] | 10 | 4.9 | 31 |  | 12.9 |  | 60 | 1 |
| Cn1cnc2ccc(Nc3c(F)ccc(NS(=O)(=O)N4CC(COC(F)F)C4)c3Cl)c(Cl)c2c1=O [Example 138, N-(2-chloro-3-((5-chloro-3-methyl-4-oxo-3,4-dihydroquinazolin-6-yl)amino)-4-fluorophenyl)-3-((difluoromethoxy)methyl)azetidine-1-sulfonamide trifluoroacetate] | 6 | 3.1 | 33 | 3 | 3.1 |  | 26 |  |
| CO[C@@H]1CCN(S(=O)(=O)Nc2cc(F)c(F)c(Nc3ccc4ncn(C)c(=O)c4c3Cl)c2Cl)C1 [Example 32, (R)-N-(2-chloro-3-((5-chloro-3-methyl-4-oxo-3,4-dihydroquinazolin-6-yl)amino)-4,5-difluorophenyl)-3-methoxypyrrolidine-1-sulfonamide trifluoroacetate] | 5 | 1.8 | 32 | 2 | 1 |  | 83 |  |
| Cc1c(Nc2cc(F)cc(NS(=O)(=O)N3CCCC3)c2Cl)ccc2ncn(C)c(=O)c12 [Example 150, N-(2-chloro-3-((3,5-dimethyl-4-oxo-3,4-dihydroquinazolin-6-yl)amino)-5-fluorophenyl)pyrrolidine-1-sulfonamide] | 342 | 1.3 | 27 | 18 | 1.4 |  | 548 |  |
| Cc1c(Nc2c(F)ccc(NS(=O)(=O)N3CC4C(F)C4C3)c2Cl)ccc2ncn(C)c(=O)c12 (stereo not drawn) [Example 148, N-(2-chloro-3-((3,5-dimethyl-4-oxo-3,4-dihydroquinazolin-6-yl)amino)-4-fluorophenyl)-6-fluoro-3-azabicyclo[3.1.0]hexane-3-sulfonamide] | 426 | 2.4 | 22 | 27 | 1.8 |  | 854 |  |
| CCC1CCN(S(=O)(=O)Nc2ccc(F)c(Nc3ccc4ncn(C)c(=O)c4c3Cl)c2Cl)C1 (stereo not drawn) [Example 94, N-(2-chloro-3-((5-chloro-3-methyl-4-oxo-3,4-dihydroquinazolin-6-yl)amino)-4-fluorophenyl)-3-ethylpyrrolidine-1-sulfonamide trifluoroacetate] | 138 | 0.9 | 22 | 20 | 1.7 |  | 281 |  |
| Cn1cnc2ccc(Nc3c(F)ccc(NS(=O)(=O)N4CCCC4)c3Cl)c(Br)c2c1=O [Example 11, N-(3-((5-bromo-3-methyl-4-oxo-3,4-dihydroquinazolin-6-yl)amino)-2-chloro-4-fluorophenyl)pyrrolidine-1-sulfonamide trifluoroacetate] | 17 | 1.3 | 28 | 7 | 0.8 |  | 75 |  |
| Cc1c(Nc2cc(Cl)cc(NS(=O)(=O)N3CC[C@@H](F)C3)c2F)ccc2ncn(C)c(=O)c12 [Example 103, (R)-N-(5-chloro-3-((3,5-dimethyl-4-oxo-3,4-dihydroquinazolin-6-yl)amino)-2-fluorophenyl)-3-fluoropyrrolidine-1-sulfonamide] | 118 | 3.2 | 25 | 5 | 3.5 |  | 365 |  |

Source: US12303509B2, “Compounds for the treatment of BRAF-associated diseases and disorders” (Pfizer Inc., priority 2020, dated 2025)
